# Laboratory results as given in patent publication US20210386367A1, “DEVICES AND SYSTEMS FOR GASTROINTESTINAL MICROBIOME DETECTION AND MANIPULATION” (Progenity, Inc., priority 2018, published 2021).
# “Also recorded” adds a separate entry of the source. Like-named read-outs stand apart in the source and are kept apart here.
# Tests used:
# [1] = system: Enterococcus faecalis clinical isolates; experiment: MIC distribution against clinical isolates; assay type: cell-based; details: 50 E. faecalis isolates
# [2] = system: Staphylococcus aureus clinical isolates; experiment: MIC distribution against clinical isolates; assay type: cell-based; details: 50 S. aureus isolates
# Klebsiella spp. = experiment: Broth microdilution MIC, 50 clinical isolates (20 K. oxytoca, 30 K. pneumoniae); assay type: cell-based
# Description: (§1) Minimal inhibitory concentration (MIC) values were determined by broth microdilution or agar dilution in accordance with guidelines from the Clinical and Laboratory Standards Institute (CLSI; (1) “Methods for Dilution Antimicrobial Susceptibility Tests for Bacteria That Grow Aerobically; Approved Standard; 11th ed.” CLSI standard M07-A11, 2018; (2) “Performance Standards for Antimicrobial Susceptibility Testing; Twenty-Eighth Informational Supplement,” CLSI document M100-S28, 2018; and (3) “Methods for Antimicrobial Susceptibility Testing of Anaerobic Bacteria; Approved Standard—Eighth Edition,” CLSI document M11-A8, 2012).
# (§2) Tested aerobically by broth microdilution: • Escherichia coli, n=50 • Klebsiella spp., n=50 • Pseudomonas aeruginosa, n=50 • Streptococcus spp., n=50 • Staphylococcus aureus, n=50 • Enterococcus faecalis, n=50 • Enterobacter aerogenes, n=50 • Proteus mirabilis, n=50
# (§3) Broth microdilution testing of aerobic bacteria was conducted in cation-adjusted Mueller Hinton broth (MHBII). For testing streptococci, lysed horse blood (LHB) was added to MHBII broth at a final concentration of 3%. Where LHB was used, it was added after filtering.
# (§4) Broth microdilution susceptibility testing in 96-well microplates was conducted in accordance with CLSI methods (1) and (2). Automated liquid handlers were used to conduct serial dilutions and liquid transfers, including the Multidrop 384 (Labsystems, Helsinki, Finland), Biomek 2000, and the Biomek FX (Beckman Coulter, Fullerton, Calif.). All wells in columns 2 through 12 of a standard 96-well microdilution plate (Costar 3795) were filled with 150 μL of the appropriate diluent. Then, 300 μL of the test agents were added to the wells of column 1 of the plates at 100× the highest final concentration to be tested. Serial two-fold dilutions were made across the rows through column 11 using the Biomek 2000. The wells of column 12 contained no drug and served as the growth control wells. This plate served as the “mother plate” from which MIC assay plates or “daughter plates” were made.
# (§5) The daughter plates were loaded with 190 μL per well of the appropriate medium using the Multidrop 384. The daughter plates were created using the Biomek FX which transferred 2 μL of drug solution from each well of a mother plate to each corresponding well of the daughter plate in a single step. A standardized inoculum of each test organism was prepared per CLSI methods (1) to equal a 0.5 McFarland standard, followed by a dilution of 1:20 for aerobes and 1:10 for anaerobes. The plates were then inoculated with 10 μL of the diluted inoculum using the Biomek 2000 from low to high drug concentration, resulting in a final concentration of approximately 5×10^5 CFU/mL per well. An un-inoculated plate was incubated in parallel for each medium for the purpose of assessing solubility of the drug in the test media.
# (§6) Inoculated plates were stacked 3 or 4 high, covered with a sterile lid on the top plate, placed into boxes with CO2 planchets (streptococci) or plastic bags (all other isolates). Plates were incubated at 35° C. for 16-24 hr in ambient air for aerobes or for 42-48 hr in the anaerobic environment of the Bactron II anaerobe chamber (Sheldon Manufacturing Co.; Cornelius, Oreg.). Following incubation, the microplates were removed from the incubator and viewed from the bottom using a plate viewer. The MIC values were read and recorded as the lowest concentration of drug that inhibited visible growth of the organism as per CLSI methods (1) and (2).
# Streptococcus spp. = experiment: Broth microdilution MIC, 54 clinical isolates; assay type: cell-based
# Description: as §1, §2, §3, §4, §5, §6
# B. vulgatus ATCC 8482 = experiment: Time-kill assay; assay type: cell-based, Bacteroides vulgatus; details: 2×, 4×, 8× MIC; 2, 6, 24, 48 hr
# SIBO Bacteria = details: cited from earlier work
# [3] = 54 Streptococcus spp. clinical isolates
structure (smiles),measurement,setting,value
C[C@@H](O)[C@H]1C(=O)N2C(C(=O)O)=C(S[C@@H]3CN[C@H](C(=O)N(C)C)C3)[C@H](C)[C@H]12 [meropenem],Cumulative percentage of isolates inhibited at MIC,[1]; MIC 0.5 μg/mL,2.0%
same,Number of test isolates at MIC,[1]; MIC 0.5 μg/mL,1
same,Cumulative percentage of isolates inhibited at MIC,[1]; MIC 1 μg/mL,8.0%
same,Number of test isolates at MIC,[1]; MIC 1 μg/mL,3
same,Cumulative percentage of isolates inhibited at MIC,[1]; MIC 2 μg/mL,24.0%
same,Number of test isolates at MIC,[1]; MIC 2 μg/mL,8
same,Cumulative percentage of isolates inhibited at MIC,[1]; MIC 4 μg/mL,72.0%
same,Number of test isolates at MIC,[1]; MIC 4 μg/mL,24
same,Cumulative percentage of isolates inhibited at MIC,[1]; MIC 8 μg/mL,96.0%
same,Number of test isolates at MIC,[1]; MIC 8 μg/mL,12
same,Cumulative percentage of isolates inhibited at MIC,[1]; MIC 16 μg/mL,98.0%
same,Number of test isolates at MIC,[1]; MIC 16 μg/mL,1
same,Cumulative percentage of isolates inhibited at MIC,[1]; MIC >16 μg/mL,100.0%
same,Number of test isolates at MIC,[1]; MIC >16 μg/mL,1
same,Cumulative percentage of isolates inhibited at MIC,[2]; MIC 0.06 μg/mL,12.0%
same,Number of test isolates at MIC,[2]; MIC 0.06 μg/mL,6
same,Cumulative percentage of isolates inhibited at MIC,[2]; MIC 0.5 μg/mL,46.0%
same,Number of test isolates at MIC,[2]; MIC 0.5 μg/mL,1
same,Cumulative percentage of isolates inhibited at MIC,[2]; MIC 1 μg/mL,52.0%
same,Number of test isolates at MIC,[2]; MIC 1 μg/mL,3
same,Cumulative percentage of isolates inhibited at MIC,[2]; MIC 2 μg/mL,56.0%
same,Number of test isolates at MIC,[2]; MIC 2 μg/mL,2
same,Cumulative percentage of isolates inhibited at MIC,[2]; MIC 4 μg/mL,78.0%
same,Number of test isolates at MIC,[2]; MIC 4 μg/mL,11
same,Cumulative percentage of isolates inhibited at MIC,[2]; MIC 8 μg/mL,94.0%
same,Number of test isolates at MIC,[2]; MIC 8 μg/mL,8
same,Cumulative percentage of isolates inhibited at MIC,[2]; MIC 16 μg/mL,96.0%
same,Number of test isolates at MIC,[2]; MIC 16 μg/mL,1
same,Cumulative percentage of isolates inhibited at MIC,[2]; MIC >16 μg/mL,100.0%
same,Number of test isolates at MIC,[2]; MIC >16 μg/mL,2
same,% R,Klebsiella spp.,Sixteen
same,% S,Klebsiella spp.,84%
same,Mode,Klebsiella spp.,0.015 µg/mL
same,relative activity among drugs tested,Klebsiella spp.,most active drug evaluated; also recorded: MIC50 value for meropenem was the lowest
same,Cumulative percentage of isolates at MIC,Klebsiella spp.; 0.015 μg/mL,58.0%
same,Number of test isolates at MIC,Klebsiella spp.; 0.015 μg/mL,27
same,Cumulative percentage of isolates at MIC,Klebsiella spp.; 0.03 μg/mL,80.0%
same,Number of test isolates at MIC,Klebsiella spp.; 0.03 μg/mL,11
same,Cumulative percentage of isolates at MIC,Klebsiella spp.; 0.06 μg/mL,82.0%
same,Number of test isolates at MIC,Klebsiella spp.; 0.06 μg/mL,1
same,Cumulative percentage of isolates at MIC,Klebsiella spp.; 0.5 μg/mL,84.0%
same,Number of test isolates at MIC,Klebsiella spp.; 0.5 μg/mL,1
same,Cumulative percentage of isolates at MIC,Klebsiella spp.; 8 μg/mL,88.0%
same,Number of test isolates at MIC,Klebsiella spp.; 8 μg/mL,2
same,Cumulative percentage of isolates at MIC,Klebsiella spp.; >8 μg/mL,100.0%
same,Number of test isolates at MIC,Klebsiella spp.; >8 μg/mL,6
same,MIC50,"Klebsiella spp.; Klebsiella, read-out: MIC50",0.015 µg/mL
same,MIC90,"Klebsiella spp.; Klebsiella, read-out: MIC90",> 8 µg/mL
same,% R,Klebsiella spp.; listed as MEM,16%
same,MIC90,Klebsiella spp.; listed as MEM,>8 µg/mL
same,Cumulative percentage of isolates at MIC,Klebsiella spp.; ≤0.008 μg/mL,4.0%
same,Number of test isolates at MIC,Klebsiella spp.; ≤0.008 μg/mL,2
same,isolates susceptible,Streptococcus spp.,All
same,relative activity among drugs tested,Streptococcus spp.,most active drug evaluated; also recorded: most active agent
same,MIC50,Streptococcus spp.; [3],0.015 µg/mL
same,MIC90,Streptococcus spp.; [3],0.03 µg/mL
same,MIC range,Streptococcus spp.; [3],≤0.002 to 0.5 µg/mL
same,% S,"Streptococcus spp.; 54 Streptococcus spp. clinical isolates, MXF by FDA breakpoints",100%
same,MIC50,"Streptococcus spp.; Streptococcus, read-out: MIC50",0.015 µg/mL
same,MIC90,"Streptococcus spp.; Streptococcus, read-out: MIC90",0.03 µg/mL
same,Mode,"Streptococcus spp.; modal MIC, 54 Streptococcus spp. clinical isolates",0.03 µg/mL
same,time-kill kinetics outcome (bactericidal = ≥3 log reduction in CFU per mL),B. vulgatus ATCC 8482,bactericidal effect at 24 and 48 hr at 4× and 8×MIC
same,activity against SIBO organisms,SIBO Bacteria,active against SIBO organisms
